Assay in all cases: PDF Inhibition Assay
Settings in all cases: pH 7.6; 25 °C

Assay [1] deals with T1, Peptide deformylase (Haemophilus influenzae (strain ATCC 51907 / DSM 11121 / KW20 / Rd), UniProt P44786).
T1 sequence (P44786 whole entry): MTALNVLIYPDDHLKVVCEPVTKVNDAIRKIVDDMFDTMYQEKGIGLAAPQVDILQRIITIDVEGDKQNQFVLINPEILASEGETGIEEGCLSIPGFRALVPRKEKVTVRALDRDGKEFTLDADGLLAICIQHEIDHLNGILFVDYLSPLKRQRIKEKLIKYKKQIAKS
On the procedure: (§1) Enzyme assay was carried out in 96-well microtiter plates with a SpectraMax plate reader (Molecular Devices Corp.). PDF activity was measured using a continuous enzyme-linked assay. The reaction was triggered with the addition of PDF enzyme, and absorbance was monitored for 15 min at 340 nm. […] A standard curve with NADH concentrations ranging from 0 to 1 mM was performed. The velocities obtained in mOD340 nm per minute were then converted to micromolar NADH produced per second to calculate Vmax. To determine IC50s, PDF activity was measured in the presence of increasing concentrations of the inhibitor in the presence of substrate concentration corresponding to Km values. All data fitting was carried out with nonlinear least squares regression using the commercial software package Graphit.

Assay [2] concerns the target T2, Peptide deformylase (Escherichia coli (strain K12), UniProt P0A6K3).
T2 sequence (P0A6K3 whole entry): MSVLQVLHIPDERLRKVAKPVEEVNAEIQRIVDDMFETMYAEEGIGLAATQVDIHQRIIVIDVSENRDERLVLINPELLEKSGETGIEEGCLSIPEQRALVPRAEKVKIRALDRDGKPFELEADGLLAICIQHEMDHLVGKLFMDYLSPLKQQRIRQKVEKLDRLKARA
On the procedure:
as §1

Assay [3] addresses T3, Peptide deformylase (Staphylococcus aureus (strain Mu50 / ATCC 700699), UniProt P68825).
T3 sequence (P68825 whole entry): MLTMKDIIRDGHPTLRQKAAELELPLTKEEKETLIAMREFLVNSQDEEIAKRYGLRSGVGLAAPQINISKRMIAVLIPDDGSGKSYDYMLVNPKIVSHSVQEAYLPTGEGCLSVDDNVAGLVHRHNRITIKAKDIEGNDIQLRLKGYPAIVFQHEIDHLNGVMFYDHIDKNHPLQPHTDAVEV
Here is the method: as §1

Assay [4] deals with T4, Peptide deformylase (Streptococcus pneumoniae (strain ATCC BAA-255 / R6), UniProt Q8DP79).
T4 sequence (Q8DP79 whole entry): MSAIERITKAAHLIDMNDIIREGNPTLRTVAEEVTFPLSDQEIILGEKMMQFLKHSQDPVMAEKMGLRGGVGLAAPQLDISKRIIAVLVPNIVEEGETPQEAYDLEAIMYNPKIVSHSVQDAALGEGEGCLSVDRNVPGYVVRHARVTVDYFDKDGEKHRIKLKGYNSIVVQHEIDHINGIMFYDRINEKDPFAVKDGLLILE
Here is the method: as §1

In BindingDB's records for doi:10.1110/ps.0229303 (Gsk, 2003) one finds IC50 data, which are given here for three compounds.

By IC50 is commonly meant the concentration needed to halve the response being measured. Lower therefore signals greater potency. In the case of `Cc1cccc(CCCN(O)C=O)n1` [N-hydroxy-N-[3-(6-methylpyridin-2-yl)propyl]formamide], the IC50 on Peptide deformylase [1] came out at 1040 nM.

Turning to `O=CN(O)CCOc1cccc(C(=O)c2ccccc2)c1` [N-[2-(3-benzoylphenoxy)ethyl]-N-hydroxyformamide], the IC50 against Peptide deformylase [1] was determined as 320 nM.

For `O=CN(O)CCCc1ccccc1` [N-hydroxy-N-(3-phenylpropyl)formamide], the IC50 is 160 nM on Peptide deformylase [2], 150 nM against Peptide deformylase [1], 250 nM against Peptide deformylase [3] and 400 nM on Peptide deformylase [4].
